Patent US20240132431A1, “METHOD FOR ALKYLATING ACIDIC FUNCTIONAL GROUP” (Chugai Seiyaku Kabushiki Kaisha, priority 2021, published 2024)
Like-named read-outs stand apart in the source and are kept apart here.

How the values were obtained:
[1] = target: T1, Bcl-2 protein (Recombinant Human Bcl-2 Protein) (Homo sapiens, UniProt P10415); experiment: Binding evaluation of mixture library compounds to Bcl-2 using AS-MS (affinity selection mass spectrometry); conditions: for ASMS ratio (%) n = 1 / ASMS ratio (%) n = 2: AS-MS, Bcl-2, ASMS Ratio(%)=(A−C)/B×100; for ASMS ratio (%) n = 1: replicate n = 1; for ASMS ratio (%) n = 2: replicate n = 2; for ASMS ratio (%): (A−C)/B×100, 1200-compound mixture, Bcl-2 20 μM
T1 construct: purchased Novus NBP2-34889
T1 sequence (P10415 whole entry): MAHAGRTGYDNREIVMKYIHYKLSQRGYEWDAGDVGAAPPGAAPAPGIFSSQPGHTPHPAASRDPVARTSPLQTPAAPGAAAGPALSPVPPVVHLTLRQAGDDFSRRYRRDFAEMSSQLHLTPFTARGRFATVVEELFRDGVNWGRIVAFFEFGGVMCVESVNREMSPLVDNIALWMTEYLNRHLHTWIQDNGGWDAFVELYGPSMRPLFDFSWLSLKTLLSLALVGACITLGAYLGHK
Outline: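 Bcl-2 binding is scored from LC/MS signal retained with protein through gel-filtration spin columns, normalised to unfiltered and protein-free controls. Incubation: 20 μM protein, […] per compound, 1 h, 23° C.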

human Bcl-2 protein = target: T2, human Bcl-2 protein (Homo sapiens, UniProt P10415); experiment: Binding evaluation of compounds to Bcl-2 by surface plasmon resonance (SPR)
T2 construct: purchased Novus Biologicals
T2 sequence (P10415 whole entry): as above
Method: In order to analyze the binding affinity of the compounds shown in [Table AK-O1] and synthesized in Example 8 to Bcl-2, the surface plasmon resonance method was used. Biacore T200 (GE Healthcare) was used as the apparatus, and HBS (10 mM HEPES-NaOH, 150 mM NaCl, pH 7.4) to which 1 mM DTT, 3 mM EDTA, 0.01% Tween 20, and 4% DMSO had been added was used as the running buffer. The human Bcl-2 protein (Novus Biologicals) was biotinylated using EZ-Link Sulfo-NHS-LC-LC-biotin (Thermofisher scientific) and immobilized on the surface of Sensor Chip SA (GE Healthcare). Thereafter, compound solutions of multiple concentrations and the running buffer (blank) were added to the Bcl-2 immobilized surface to obtain the binding response of the compounds. The measurement was carried out at 15° C.

[2] = Biacore T200, biotinylated human Bcl-2 immobilized on Sensor Chip SA, 15° C., compounds found by AS-MS evaluation of synthesized library
[3] = binding to Bcl-2, compounds evaluated before library synthesis, read-out: KD

| ASMS ratio (%) n = 1 ([1]; mixture library) [%] | ASMS ratio (%) n = 2 ([1]; mixture library) [%] | Structure (SMILES) | also measured |
| --- | --- | --- | --- |
| – | – | CCOc1cccc(-c2ccc(CN3CCN(c4ccc(C(=O)NCC56CC7CC(CC(C7)C5)C6)nn4)CC3)c(CC)c2)c1 [B1A075-01, N-(1-adamantylmethyl)-6-[4-[[4-(3-ethoxyphenyl)-2-ethylphenyl]methyl]piperazin-1-yl]pyridazine-3-carboxamide] | ASMS ratio (%) n = 1 ([1]; mixture of 1200 compounds): 31.3%; ASMS ratio (%) n = 2 ([1]; mixture of 1200 compounds): 28.6%; ASMS ratio (%) ([1]; first value in parentheses): 31.3%; ASMS ratio (%) ([1]; second value in parentheses): 28.6%; Equilibrium dissociation constant KD (human Bcl-2 protein; [2]): Binding not observed |
| 21.4 | 22.5 | CCOc1cncc(-c2ccccc2CCC(=O)N2CCN(c3ccc(C(=O)NS(=O)(=O)c4ccc(NCCSc5ccccc5)c([N+](=O)[O-])c4)nn3)CC2)c1 [B2Q012-01, 6-[4-[3-[2-(5-ethoxypyridin-3-yl)phenyl]propanoyl]piperazin-1-yl]-N-[3-nitro-4-(2-phenylsulfanylethylamino)phenyl]sulfonylpyridazine-3-carboxamide] | ASMS ratio (%) ([1]; first value in parentheses): 21.4%; ASMS ratio (%) ([1]; second value in parentheses): 22.5%; Equilibrium dissociation constant KD (human Bcl-2 protein; [2]): Bound |
| 49.9 | 49.9 | CCOc1cccc(-c2ccccc2CN2CCN(c3ccc(C(=O)NS(=O)(=O)c4ccc(NCCSc5ccccc5)c([N+](=O)[O-])c4)cc3)CC2)c1 [B2Q045-01, 4-[4-[[2-(3-ethoxyphenyl)phenyl]methyl]piperazin-1-yl]-N-[3-nitro-4-(2-phenylsulfanylethylamino)phenyl]sulfonylbenzamide] | ASMS ratio (%) ([1]; first value in parentheses): 49.9%; ASMS ratio (%) ([1]; second value in parentheses): 49.9%; Kd (human Bcl-2 protein; [3]): 1.2 µM |
| 20.3 | 20.5 | CCOc1cncc(-c2ccccc2CN2CCN(c3ccc(C(=O)NS(=O)(=O)c4ccc(NCCSc5ccccc5)c([N+](=O)[O-])c4)cc3)CC2)c1 [B2Q046-01, 4-[4-[[2-(5-ethoxypyridin-3-yl)phenyl]methyl]piperazin-1-yl]-N-[3-nitro-4-(2-phenylsulfanylethylamino)phenyl]sulfonylbenzamide] | ASMS ratio (%) ([1]; first value in parentheses): 20.3%; ASMS ratio (%) ([1]; second value in parentheses): 20.5%; Kd (human Bcl-2 protein; [3]): 8.1 µM |
| 142.5 | 326.4 | CCOc1cccc(-c2ccc(CN3CCN(c4ccc(C(=O)NS(=O)(=O)c5ccc(NCCSc6ccccc6)c([N+](=O)[O-])c5)cc4)CC3)cc2C)c1 [B2Q047-01, 4-[4-[[4-(3-ethoxyphenyl)-3-methylphenyl]methyl]piperazin-1-yl]-N-[3-nitro-4-(2-phenylsulfanylethylamino)phenyl]sulfonylbenzamide] | ASMS ratio (%) ([1]; first value in parentheses): 142.5%; ASMS ratio (%) ([1]; second value in parentheses): 326.4%; Kd (human Bcl-2 protein; Biacore T200, biotinylated human Bcl-2 immobilized on Sensor Chip SA, 15° C., compounds found by AS-MS evaluation of synthesized library, read-out: Equilibrium dissociation constant KD): 0.7 µM; equilibrium dissociation constant KD compared to compound B2Q045-01 (human Bcl-2 protein; binding to Bcl-2): smaller equilibrium dissociation constants KD |
| 0.0 | 0.0 | CCOc1cncc(-c2cc(OC)c(CN3CCN(c4ccc(C(=O)N(CC)CC)nn4)CC3)c(OC)c2)c1 [B4J086-01, 6-[4-[[4-(5-Ethoxypyridin-3-yl)-2,6-dimethoxyphenyl]methyl]piperazin-1-yl]-N,N-diethylpyridazine-3-carboxamide] | – |
| 0.9 | 0.3 | CCOc1cccc(-c2cc(CN3CCN(c4ccc(C(=O)N(CC)CC)nn4)CC3)cc(C(F)(F)F)c2)c1 [B4J087-01, 6-[4-[[3-(3-Ethoxyphenyl)-5-(trifluoromethyl)phenyl]methyl]piperazin-1-yl]-N,N-diethylpyridazine-3-carboxamide] | – |
| 0.0 | 0.0 | CCOc1cncc(-c2cc(CN3CCN(c4ccc(C(=O)N(CC)CC)nn4)CC3)cc(C(F)(F)F)c2)c1 [B4J088-01] | – |
| 3.9 | 0.4 | CCOc1cccc(-c2cc(CN3CCN(c4ccc(C(=O)N(CC)CC)nn4)CC3)cc(OC(F)(F)F)c2)c1 [B4J089-01, 6-[4-[[3-(3-Ethoxyphenyl)-5-(trifluoromethoxy)phenyl]methyl]piperazin-1-yl]-N,N-diethylpyridazine-3-carboxamide] | – |
| 1.4 | −1.5 | CCOc1cncc(-c2cc(CN3CCN(c4ccc(C(=O)N(CC)CC)nn4)CC3)cc(OC(F)(F)F)c2)c1 [B4J090-01, 6-[4-[[3-(5-Ethoxypyridin-3-yl)-5-(trifluoromethoxy)phenyl]methyl]piperazin-1-yl]-N,N-diethylpyridazine-3-carboxamide] | – |
| 3.7 | 1.5 | CCOc1cccc(-c2ccc(CN3CCN(c4ccc(C(=O)N(CC)CC)nn4)CC3)c3ccccc23)c1 [B4J091-01, 6-[4-[[4-(3-Ethoxyphenyl)naphthalen-1-yl]methyl]piperazin-1-yl]-N,N-diethylpyridazine-3-carboxamide] | – |
| −1.4 | 0.3 | CCOc1cncc(-c2ccc(CN3CCN(c4ccc(C(=O)N(CC)CC)nn4)CC3)c3ccccc23)c1 [B4J092-01, 6-[4-[[4-(5-Ethoxypyridin-3-yl)naphthalen-1-yl]methyl]piperazin-1-yl]-N,N-diethylpyridazine-3-carboxamide] | – |
| −2.1 | 0.6 | CCOc1cccc(-c2csc(CN3CCN(c4ccc(C(=O)N(CC)CC)nn4)CC3)c2)c1 [B4J093-01] | – |
| −1.3 | 0.1 | CCOc1cncc(-c2csc(CN3CCN(c4ccc(C(=O)N(CC)CC)nn4)CC3)c2)c1 [B4J094-01] | – |
| 1.5 | 0.0 | CCOc1cccc(C#Cc2ccccc2CN2CCN(c3ccc(C(=O)N(CC)CC)nn3)CC2)c1 [B4J095-01, 6-[4-[[2-[2-(3-Ethoxyphenyl)ethynyl]phenyl]methyl]piperazin-1-yl]-N,N-diethylpyridazine-3-carboxamide] | – |
| – | 0.0 | CCOc1cncc(C#Cc2ccccc2CN2CCN(c3ccc(C(=O)N(CC)CC)nn3)CC2)c1 [B4J096-01] | – |

| Structure (SMILES) | ASMS ratio (%) n = 1 ([1]; mixture library) [%] | ASMS ratio (%) n = 2 ([1]; mixture library) [%] | also measured |
| --- | --- | --- | --- |
| CCOc1cccc(-c2ccc(C(C)N3CCN(c4ccc(C(=O)N(CC)CC)cc4)CC3)cc2)c1 (stereo not drawn) [B4J097-01, 4-[4-[1-[4-(3-Ethoxyphenyl)phenyl]ethyl]piperazin-1-yl]-N,N-diethylbenzamide] | −0.9 | −0.4 | – |
| CCOc1cncc(-c2ccc(C(C)N3CCN(c4ccc(C(=O)N(CC)CC)cc4)CC3)cc2)c1 (stereo not drawn) [B4J098-01, 4-[4-[1-[4-(5-Ethoxypyridin-3-yl)phenyl]ethyl]piperazin-1-yl]-N,N-diethylbenzamide] | −2.0 | −0.2 | – |
| CCOc1cccc(-c2ccc(C(C)N3CCN(c4ccc(C(=O)N(CC)CC)cc4)CC3)c(F)c2)c1 (stereo not drawn) [B4J099-01, 4-[4-[1-[4-(3-Ethoxyphenyl)-2-fluorophenyl]ethyl]piperazin-1-yl]-N,N-diethylbenzamide] | – | 0.0 | – |
| CCOc1cncc(-c2ccc(C(C)N3CCN(c4ccc(C(=O)N(CC)CC)cc4)CC3)c(F)c2)c1 (stereo not drawn) [B4J100-01, 4-[4-[1-[4-(5-Ethoxypyridin-3-yl)-2-fluorophenyl]ethyl]piperazin-1-yl]-N,N-diethylbenzamide] | 0.0 | 0.0 | – |
